Reference: the supplement of paper PMC10307832

Columns and labels:
Experiment in all cases: relative viability (nuclei count vs DMSO), 5 days (fraction); higher = more cells survive
UMC-11 = system: UMC-11
Summary of the method: (§1)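 The day after seeding in 1536-well plates, lung cancer cell lines were treated by pin tool with a single drug, or with a fixed anchor-drug dose together with five library-drug doses (not always all listed) in √10 steps. After 5 days, a combined fix-and-stain solution (final 0.05% Triton X-100, 1% formaldehyde, 1 ug/ml Hoechst) was added. Nuclei counted on 4× images gave relative viability as treated counts over vehicle counts, reported as the median of duplicate plates.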

NCI-H23 = system: NCI-H23
Summary of the method: as §1

A549 = system: A549
Summary of the method: as §1

NCI-H322M = system: NCI-H322M
Summary of the method: as §1

LCLC-97TM1 = system: LCLC-97TM1
Summary of the method: as §1

NCI-H1355 = system: NCI-H1355
Summary of the method: as §1

NCI-H1993 = system: NCI-H1993
Summary of the method: as §1

NCI-H596 = system: NCI-H596
Summary of the method: as §1

NCI-H1623 = system: NCI-H1623
Summary of the method: as §1

## COc1cc2nccc(Oc3ccc(NC(=O)Nc4cc(C)on4)c(Cl)c3)c2cc1OC [Tivozanib] + N=C(N)NC(=N)NCCc1ccccc1 [Phenformin] (partner 250 µM)
UMC-11; first compound 0.005 µM
  relative viability: 0.324
UMC-11; first compound 0.01581 µM
  relative viability: 0.332
UMC-11; first compound 0.05 µM
  relative viability: 0.329
UMC-11; first compound 0.5 µM
  relative viability: 0.25
NCI-H23; first compound 0.005 µM
  relative viability: 0.727
NCI-H23; first compound 0.01581 µM
  relative viability: 0.824
NCI-H23; first compound 0.05 µM
  relative viability: 0.783
NCI-H23; first compound 0.1581 µM
  relative viability: 0.752
NCI-H23; first compound 0.5 µM
  relative viability: 0.809
A549; first compound 0.005 µM
  relative viability: 0.171
A549; first compound 0.01581 µM
  relative viability: 0.163
A549; first compound 0.05 µM
  relative viability: 0.19
A549; first compound 0.1581 µM
  relative viability: 0.124
A549; first compound 0.5 µM
  relative viability: 0.209
NCI-H322M; first compound 0.005 µM
  relative viability: 0.721
NCI-H322M; first compound 0.01581 µM
  relative viability: 0.82
NCI-H322M; first compound 0.05 µM
  relative viability: 0.776
NCI-H322M; first compound 0.1581 µM
  relative viability: 0.689
NCI-H322M; first compound 0.5 µM
  relative viability: 0.655
LCLC-97TM1; first compound 0.005 µM
  relative viability: 0.423
LCLC-97TM1; first compound 0.01581 µM
  relative viability: 0.49
LCLC-97TM1; first compound 0.05 µM
  relative viability: 0.417
LCLC-97TM1; first compound 0.1581 µM
  relative viability: 0.473
LCLC-97TM1; first compound 0.5 µM
  relative viability: 0.395
NCI-H1355; first compound 0.005 µM
  relative viability: 0.413
NCI-H1355; first compound 0.01581 µM
  relative viability: 0.432
NCI-H1355; first compound 0.05 µM
  relative viability: 0.481
NCI-H1355; first compound 0.1581 µM
  relative viability: 0.43
NCI-H1355; first compound 0.5 µM
  relative viability: 0.382
NCI-H1993; first compound 0.005 µM
  relative viability: 0.503
NCI-H1993; first compound 0.01581 µM
  relative viability: 0.507
NCI-H1993; first compound 0.05 µM
  relative viability: 0.51
NCI-H1993; first compound 0.1581 µM
  relative viability: 0.558
NCI-H1993; first compound 0.5 µM
  relative viability: 0.52
NCI-H596; first compound 0.005 µM
  relative viability: 0.744
NCI-H596; first compound 0.01581 µM
  relative viability: 0.699
NCI-H596; first compound 0.05 µM
  relative viability: 0.777
NCI-H596; first compound 0.5 µM
  relative viability: 0.798
NCI-H1623; first compound 0.005 µM
  relative viability: 0.582
NCI-H1623; first compound 0.01581 µM
  relative viability: 0.622
NCI-H1623; first compound 0.05 µM
  relative viability: 0.588
NCI-H1623; first compound 0.5 µM
  relative viability: 0.607

## Cc1sc2c(c1C)C(c1ccc(Cl)cc1)=N[C@@H](CC(=O)OC(C)(C)C)c1nnc(C)n1-2 [JQ1] + N=C(N)NC(=N)NCCc1ccccc1 [Phenformin] (partner 250 µM)
UMC-11; first compound 0.04 µM
  relative viability: 0.29
UMC-11; first compound 0.1265 µM
  relative viability: 0.211
UMC-11; first compound 0.4 µM
  relative viability: 0.231
UMC-11; first compound 1.265 µM
  relative viability: 0.224
UMC-11; first compound 4 µM
  relative viability: 0.195
NCI-H23; first compound 0.04 µM
  relative viability: 0.749
NCI-H23; first compound 0.1265 µM
  relative viability: 0.768
NCI-H23; first compound 0.4 µM
  relative viability: 0.812
NCI-H23; first compound 1.265 µM
  relative viability: 0.414
NCI-H23; first compound 4 µM
  relative viability: 0.592
A549; first compound 0.04 µM
  relative viability: 0.171
A549; first compound 0.1265 µM
  relative viability: 0.137
A549; first compound 0.4 µM
  relative viability: 0.14
A549; first compound 1.265 µM
  relative viability: 0.182
A549; first compound 4 µM
  relative viability: 0.21
NCI-H322M; first compound 0.04 µM
  relative viability: 0.686
NCI-H322M; first compound 0.1265 µM
  relative viability: 0.746
NCI-H322M; first compound 0.4 µM
  relative viability: 0.66
NCI-H322M; first compound 1.265 µM
  relative viability: 0.373
NCI-H322M; first compound 4 µM
  relative viability: 0.417
LCLC-97TM1; first compound 0.04 µM
  relative viability: 0.423
LCLC-97TM1; first compound 0.1265 µM
  relative viability: 0.42
LCLC-97TM1; first compound 0.4 µM
  relative viability: 0.446
LCLC-97TM1; first compound 1.265 µM
  relative viability: 0.328
LCLC-97TM1; first compound 4 µM
  relative viability: 0.203
NCI-H1355; first compound 0.04 µM
  relative viability: 0.45
NCI-H1355; first compound 0.1265 µM
  relative viability: 0.473
NCI-H1355; first compound 0.4 µM
  relative viability: 0.433
NCI-H1355; first compound 1.265 µM
  relative viability: 0.388
NCI-H1355; first compound 4 µM
  relative viability: 0.326
NCI-H1993; first compound 0.04 µM
  relative viability: 0.49
NCI-H1993; first compound 0.1265 µM
  relative viability: 0.55
NCI-H1993; first compound 0.4 µM
  relative viability: 0.561
NCI-H1993; first compound 1.265 µM
  relative viability: 0.557
NCI-H1993; first compound 4 µM
  relative viability: 0.572
NCI-H596; first compound 0.04 µM
  relative viability: 0.702
NCI-H596; first compound 0.1265 µM
  relative viability: 0.812
NCI-H596; first compound 0.4 µM
  relative viability: 0.829
NCI-H596; first compound 1.265 µM
  relative viability: 0.374
NCI-H596; first compound 4 µM
  relative viability: 0.348
NCI-H1623; first compound 0.04 µM
  relative viability: 0.597
NCI-H1623; first compound 0.1265 µM
  relative viability: 0.628
NCI-H1623; first compound 0.4 µM
  relative viability: 0.547
NCI-H1623; first compound 1.265 µM
  relative viability: 0.486
NCI-H1623; first compound 4 µM
  relative viability: 0.406
